According to the supplement of paper PMC10307832:

compound: Cc1cnc(CNC(=O)c2c(=O)c3ccc(N4CCCN(C)CC4)nc3n3c2sc2ccccc23)cn1 [CX-5461] + CC(=O)Nc1cccc(-n2c(=O)n(C3CC3)c(=O)c3c(Nc4ccc(I)cc4F)n(C)c(=O)c(C)c32)c1 [Trametinib] (partner 0.02 µM); experiment: relative viability (nuclei count vs DMSO), 5 days (fraction); higher = more cells survive; settings: first compound 0.01 µM
Outline: (§1)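 For relative viability, nuclei counts in treated wells were divided by those in vehicle wells. Lung cancer cell lines had been pin-tool dosed in 1536-well plates the day after seeding and cultured for 5 days, then fixed and stained in one step (final 0.05% Triton X-100, 1% formaldehyde, 1 ug/ml Hoechst) and imaged at 4×. Doses were one drug alone or a fixed anchor-drug dose plus five library-drug doses (not always all listed) in √10 steps, and values are duplicate-plate medians.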

Cell Line	relative viability
NCI-H1993	0.525
SK-LU-1	0.503
NCI-H838	0.555
LCLC-103H	0.629
NCI-H520	0.754
NCI-H2126	0.591
EMC-BAC-2	0.91
NCI-H2085	0.516
HCC-366	0.345
NCI-H1666	0.895
NCI-H596	0.763
NCI-H2087	0.173
H3255	0.614
COR-L23	0.779
COR-L 105	0.448

same assay, conditions: first compound 0.03162 µM

Cell Line	relative viability
NCI-H1993	0.448
SK-LU-1	0.439
NCI-H838	0.555
LCLC-103H	0.687
NCI-H520	0.642
NCI-H2126	0.628
EMC-BAC-2	0.888
NCI-H2085	0.564
HCC-366	0.389
NCI-H1666	0.891
NCI-H596	0.819
NCI-H2087	0.268
H3255	0.639
COR-L23	0.727
COR-L 105	0.47

same assay, conditions: first compound 0.1 µM

Cell Line	relative viability
NCI-H1993	0.476
SK-LU-1	0.49
NCI-H838	0.539
LCLC-103H	0.626
NCI-H520	0.734
NCI-H2126	0.591
EMC-BAC-2	0.629
NCI-H2085	0.464
HCC-366	0.443
NCI-H1666	0.719
NCI-H596	0.73
NCI-H2087	0.201
H3255	0.671
COR-L23	0.556
COR-L 105	0.429

same assay, conditions: first compound 0.3162 µM

Cell Line	relative viability
NCI-H1993	0.431
SK-LU-1	0.506
NCI-H838	0.328
LCLC-103H	0.674
NCI-H520	0.327
NCI-H2126	0.557
EMC-BAC-2	0.45
NCI-H2085	0.527
HCC-366	0.412
NCI-H1666	0.821
NCI-H596	0.836
NCI-H2087	0.209
COR-L23	0.435
COR-L 105	0.388

same assay, conditions: first compound 1 µM

Cell Line	relative viability
NCI-H1993	0.544
SK-LU-1	0.345
NCI-H838	0.482
LCLC-103H	0.663
NCI-H520	0.352
NCI-H2126	0.526
EMC-BAC-2	0.429
NCI-H2085	0.615
HCC-366	0.306
NCI-H1666	0.65
NCI-H596	0.756
NCI-H2087	0.186
H3255	0.558
COR-L23	0.366
COR-L 105	0.352

compound: Cc1cnc(CNC(=O)c2c(=O)c3ccc(N4CCCN(C)CC4)nc3n3c2sc2ccccc23)cn1 [CX-5461] + CC(C)C[C@H](NC(=O)[C@H](Cc1ccccc1)NC(=O)c1cnccn1)B(O)O [Bortezomib] (partner 0.002 µM); experiment: as above; settings: first compound 0.01 µM
Outline: as §1

Cell Line	relative viability
NCI-H1993	1.09
NCI-H838	0.902
LCLC-103H	1.1
NCI-H520	0.612
NCI-H2126	1.12
EMC-BAC-2	1.14
NCI-H2085	1.04
HCC-366	1.08
NCI-H1666	0.839
NCI-H596	0.948
NCI-H2087	0.812
H3255	0.878
COR-L23	0.831
COR-L 105	0.841

same assay, conditions: first compound 0.03162 µM

Cell Line	relative viability
NCI-H1993	1.18
SK-LU-1	1.15
NCI-H838	0.85
LCLC-103H	1.13
NCI-H520	0.527
NCI-H2126	1.15
EMC-BAC-2	1.13
NCI-H2085	0.999
HCC-366	1.18
NCI-H1666	0.741
NCI-H2087	0.884
H3255	0.791
COR-L23	1.05
COR-L 105	0.701

same assay, conditions: first compound 0.1 µM

Cell Line	relative viability
NCI-H1993	1.14
SK-LU-1	1.05
NCI-H838	0.979
LCLC-103H	1.11
NCI-H520	0.627
NCI-H2126	1.15
EMC-BAC-2	1.04
NCI-H2085	0.871
HCC-366	1.06
NCI-H596	0.594
NCI-H2087	0.781
H3255	0.775
COR-L23	0.813
COR-L 105	0.492

same assay, conditions: first compound 0.3162 µM

Cell Line	relative viability
NCI-H1993	0.944
SK-LU-1	0.518
NCI-H838	0.29
LCLC-103H	1.02
NCI-H520	0.257
NCI-H2126	1.09
EMC-BAC-2	1.06
NCI-H2085	1.01
HCC-366	1.04
NCI-H1666	0.758
NCI-H596	1.03
NCI-H2087	1.07
H3255	0.464
COR-L23	1.04
COR-L 105	0.385

same assay, conditions: first compound 1 µM

Cell Line	relative viability
NCI-H1993	0.937
SK-LU-1	0.761
NCI-H838	0.646
LCLC-103H	1.07
NCI-H520	0.315
NCI-H2126	1.06
EMC-BAC-2	0.746
NCI-H2085	0.677
HCC-366	0.114
NCI-H1666	0.505
NCI-H596	0.529
NCI-H2087	0.525
H3255	0.789
COR-L23	0.474
COR-L 105	0.416

compound: O=C(Nc1cc(C(F)(F)F)cc(C(F)(F)F)c1)c1cc(Cl)ccc1O [IMD-0354] + C[C@@H](Oc1cc(-c2cnn(C3CCNCC3)c2)cnc1N)c1c(Cl)ccc(F)c1Cl [Crizotinib] (partner 1 µM); experiment: as above; settings: first compound 0.04 µM
Outline: as §1

Cell Line	relative viability
NCI-H1993	0.907
